Assay [1] has as its system HCV genotype 1b (Con1) replicon in HUH-7 cells. The assay can be described thus: HCV replicon luciferase reporter assay, genotype 1b. Type of assay: cell-based. The conditions noted are these: Hepatitis C virus, GETYPE1B, Huh-7, 72 h, HCV genotype 1b replicon luciferase, 3 days incubation. The method in brief: (§1)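 Replicon inhibition for both genotypes was measured as Renilla luciferase signal (EnduRen, 7.5 μM final, 2 h) after 3-day, 37° C exposure of replicon-bearing HUH-7 cells in 4% FCS DMEM, 0.5% DMSO. The 1b construct carries S1179I; the 1a H77 construct carries P1496L and S2204I. Twenty-point, 3-fold dilutions were fitted four-parametrically for EC50, and CC50 was taken from multiplexed Cell Titer-Blue.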
In general terms: In antiviral work, replicon cells carry a viral genome segment that copies itself.

Assay [2] deals with HCV genotype 1a (H77 strain) replicon in HUH-7 cells. The assay can be described thus: HCV replicon luciferase reporter assay, genotype 1a. In kind it is cell-based. The conditions noted are these: Hepatitis C virus, GETYPE1A, Huh-7, 72 h, HCV genotype 1a replicon luciferase, 3 days incubation. Summed up:
as §1

We go through 20 compounds from patent publication US9499550B2 (BRISTOL-MYERS SQUIBB COMPANY, priority 2012, dated 2016).

Like-named read-outs stand apart in the source and are kept apart here.

For orientation: EC50 means the midpoint of the concentration-response curve. Take `COc1cc2ccnc(O[C@@H]3C[C@H]4C(=O)N[C@]5(C(=O)NS(=O)(=O)C6(CF)CC6)C[C@H]5/C=C\CC[C@@H](C)C[C@@H](C)[C@H](NC(=O)OC(C)(C)C(F)(F)F)C(=O)N4C3)c2cc1F` [Compound 1185]: the EC50 in assay [1] (read-out: LE_1b (EC50)) is 0.83 nM; in assay [1] (read-out: LE_1b (EC50, range)), 0.51 to 1 nM; in assay [2] (read-out: LE_1a (EC50)) it was 2.91 nM; in assay [2] (read-out: LE_1a (EC50, range)), 1.01 to 5 nM.
Take `COc1cc2ccnc(O[C@@H]3C[C@H]4C(=O)N[C@]5(C(=O)NS(=O)(=O)C6(CF)CC6)C[C@H]5/C=C\CC[C@H](C)C[C@@H](C)[C@H](NC(=O)OC(C)(C)C(F)(F)F)C(=O)N4C3)c2cc1F` [Compound 1186]: the EC50 in assay [1] (read-out: LE_1b (EC50, range)) fell in the range of 1.01 to 5 nM; in assay [2] (read-out: LE_1a (EC50, range)), 5.01 to 35 nM.
The like results for `CC[C@@H]1C[C@H](C)CC/C=C\[C@@H]2C[C@@]2(C(=O)NS(=O)(=O)C2(C)CC2)NC(=O)[C@@H]2C[C@@H](Oc3nc(OC)cc4cc(OC)c(F)cc34)CN2C(=O)[C@H]1NC(=O)OC(C)(C)C(F)(F)F` [Compound 1187] were, in that order, 1.01 to 5 nM and 5.01 to 35 nM.
Turning to `CC[C@@H]1C[C@H](C)CC/C=C\[C@@H]2C[C@@]2(C(=O)NS(=O)(=O)C2(C)CC2)NC(=O)[C@@H]2C[C@@H](Oc3nc(OC)cc4cc(OC)c(F)cc34)CN2C(=O)[C@H]1NC(=O)OC(C)(C)C(C)(F)F` [Compound 1188], the 50% effective concentration (EC50) in assay [1] (read-out: LE_1b (EC50, range)) is 0.51 to 1 nM; in assay [2] (read-out: LE_1a (EC50, range)) it was 1.01 to 5 nM.
The like results for `CC[C@@H]1C[C@H](C)CC/C=C\[C@@H]2C[C@@]2(C(=O)NS(=O)(=O)C2(C)CC2)NC(=O)[C@@H]2C[C@@H](Oc3nc(OC)cc4cc(OC)c(F)cc34)CN2C(=O)[C@H]1NC(=O)OC1(C(F)(F)F)CCCOC1` (stereo partly shown) [Compound 1189] were, in that order, 0.51 to 1 nM and 1.01 to 5 nM.
For the compound `COc1cc2ccnc(O[C@@H]3C[C@H]4C(=O)N[C@]5(C(=O)NS(=O)(=O)C6(CF)CC6)C[C@H]5/C=C\CC[C@@H](C)C[C@@H](C)[C@H](NC(=O)OC5(C(F)(F)F)CCCCO5)C(=O)N4C3)c2cc1F` (stereo partly shown) [Compound 1190], the EC50 is 1.12 nM in assay [1] (read-out: LE_1b (EC50)); 1.01 to 5 nM in assay [1] (read-out: LE_1b (EC50, range)); 1.66 nM in assay [2] (read-out: LE_1a (EC50)); 1.01 to 5 nM in assay [2] (read-out: LE_1a (EC50, range)).
For `COc1cc2ccnc(O[C@@H]3C[C@H]4C(=O)N[C@]5(C(=O)NS(=O)(=O)C6(CF)CC6)C[C@H]5/C=C\CC[C@H](C)C[C@@H](C)[C@H](NC(=O)OC5(C(F)(F)F)CCCCO5)C(=O)N4C3)c2cc1F` (stereo partly shown) [Compound 1191], the 50% effective concentration (EC50) in assay [1] (read-out: LE_1b (EC50, range)) is 5.01 to 35 nM; in assay [2] (read-out: LE_1a (EC50, range)) it was 5.01 to 35 nM.
In the case of `CC[C@@H]1C[C@H](C)CC/C=C\[C@@H]2C[C@@]2(C(=O)NS(=O)(=O)C2(C)CC2)NC(=O)[C@@H]2C[C@@H](Oc3nccc4cc(OC)c(F)cc34)CN2C(=O)[C@H]1NC(=O)OC1(C(F)(F)F)CCCCO1` (stereo partly shown) [Compound 1192], the EC50 in assay [1] (read-out: LE_1b (EC50, range)) lay within 0.51 to 1 nM; in assay [2] (read-out: LE_1a (EC50, range)), 1.01 to 5 nM.
Take `CC[C@@H]1C[C@H](C)CC/C=C\[C@@H]2C[C@@]2(C(=O)NS(=O)(=O)C2(CF)CC2)NC(=O)[C@@H]2C[C@@H](Oc3nc(OC)cc4cc(OC)ccc34)CN2C(=O)[C@H]1NC(=O)OC(C)(C)C(F)(F)F` [Compound 1193]: the EC50 in assay [1] (read-out: LE_1b (EC50, range)) lay within 0.51 to 1 nM; in assay [2] (read-out: LE_1a (EC50, range)), 1.01 to 5 nM.
In the case of `CC[C@@H]1C[C@@H](C)CC/C=C\[C@@H]2C[C@@]2(C(=O)NS(=O)(=O)C2(CF)CC2)NC(=O)[C@@H]2C[C@@H](Oc3nc(OC)cc4cc(OC)ccc34)CN2C(=O)[C@H]1NC(=O)OC(C)(C)C(F)(F)F` [Compound 1194], the EC50 in assay [1] (read-out: LE_1b (EC50, range)) was 1.01 to 5 nM; in assay [2] (read-out: LE_1a (EC50, range)) it was 5.01 to 35 nM.
Consider `CC[C@@H]1C[C@H](C)CC/C=C\[C@@H]2C[C@@]2(C(=O)NS(=O)(=O)C2CC2)NC(=O)[C@@H]2C[C@@H](Oc3nc4c(c5cc(OC)c(F)cc35)CCCO4)CN2C(=O)[C@H]1NC(=O)OC(C)(C)C(F)(F)F` [Compound 1195], for which the EC50 in assay [1] (read-out: LE_1b (EC50, range)) fell in the range of 1.01 to 5 nM; in assay [2] (read-out: LE_1a (EC50, range)), 1.01 to 5 nM.
As for `COc1cc2c3c(nc(O[C@@H]4C[C@H]5C(=O)N[C@]6(C(=O)NS(=O)(=O)C7(C)CC7)C[C@H]6/C=C\CC[C@@H](C)C[C@@H](C)[C@H](NC(=O)OC(C)(C)C(F)(F)F)C(=O)N5C4)c2cc1F)OCCC3` [Compound 1196], the EC50 was 0.51 to 1 nM in assay [1] (read-out: LE_1b (EC50, range)) and 0.51 to 1 nM in assay [2] (read-out: LE_1a (EC50, range)).
`CC[C@@H]1C[C@H](C)CC/C=C\[C@@H]2C[C@@]2(C(=O)NS(=O)(=O)C2(C)CC2)NC(=O)[C@@H]2C[C@@H](Oc3nc4c(c5cc(OC)c(F)cc35)CCCO4)CN2C(=O)[C@H]1NC(=O)OC(C)(C)C(F)(F)F` [Compound 1197]: the EC50 in assay [1] (read-out: LE_1b (EC50, range)) fell in the range of 0.51 to 1 nM; in assay [2] (read-out: LE_1a (EC50, range)) it was 1.01 to 5 nM.
For the compound `CC[C@@H]1C[C@H](C)CC/C=C\[C@@H]2C[C@@]2(C(=O)NS(=O)(=O)C2(C)CC2)NC(=O)[C@@H]2C[C@@H](Oc3nc4c(c5cc(OC)c(F)cc35)CCCO4)CN2C(=O)[C@H]1NC(=O)OC(C)(C)C(C)(F)F` [Compound 1198], the half-maximal effective concentration (EC50) in assay [1] (read-out: LE_1b (EC50)) was 0.9 nM; in assay [1] (read-out: LE_1b (EC50, range)), 0.51 to 1 nM; in assay [2] (read-out: LE_1a (EC50)), 0.5 nM; in assay [2] (read-out: LE_1a (EC50, range)) it was 0.1 to 0.5 nM.
As for `CC[C@@H]1C[C@H](C)CC/C=C\[C@@H]2C[C@@]2(C(=O)NS(=O)(=O)C2(C)CC2)NC(=O)[C@@H]2C[C@@H](Oc3cc(OC)nc4cc(OC)c(F)cc34)CN2C(=O)[C@H]1NC(=O)OC(C)(C)C(F)(F)F` [Compound 1199], the EC50 in assay [1] (read-out: LE_1b (EC50, range)) was in the range of 1.01 to 5 nM; in assay [2] (read-out: LE_1a (EC50, range)), 1.01 to 5 nM.
With `CC[C@@H]1C[C@H](C)CC/C=C\[C@@H]2C[C@@]2(C(=O)NS(=O)(=O)C2(C)CC2)NC(=O)[C@@H]2C[C@@H](Oc3cc(OC)nc4cc(OC)c(F)cc34)CN2C(=O)[C@H]1NC(=O)OC(C)(C)C(C)(F)F` [Compound 1200], the EC50 in assay [1] (read-out: LE_1b (EC50, range)) is 1.01 to 5 nM; in assay [2] (read-out: LE_1a (EC50, range)) it was 1.01 to 5 nM.
As to `CC[C@@H]1C[C@H](C)CC/C=C\[C@@H]2C[C@@]2(C(=O)NS(=O)(=O)C2CC2)NC(=O)[C@@H]2C[C@@H](Oc3cc(OC)nc4cc(OC)c(F)cc34)CN2C(=O)[C@H]1NC(=O)OC(C)(C)C(F)(F)F` [Compound 1201], the concentration for a half-maximal effect (EC50) fell in the range of 1.01 to 5 nM in assay [1] (read-out: LE_1b (EC50, range)) and 1.01 to 5 nM in assay [2] (read-out: LE_1a (EC50, range)).
In the case of `CC[C@@H]1C[C@H](C)CC/C=C\[C@@H]2C[C@@]2(C(=O)NS(=O)(=O)C2CC2)NC(=O)[C@@H]2C[C@@H](Oc3cc(OC)nc4cc(OC)c(F)cc34)CN2C(=O)[C@H]1NC(=O)OC(C)(C)C(C)(F)F` [Compound 1202], the EC50 lay in the range of 0.51 to 1 nM in assay [1] (read-out: LE_1b (EC50, range)) and 1.01 to 5 nM in assay [2] (read-out: LE_1a (EC50, range)).
Take `COc1cc(O[C@@H]2C[C@H]3C(=O)N[C@]4(C(=O)NS(=O)(=O)C5(C)CC5)C[C@H]4/C=C\CC[C@@H](C)C[C@@H](C)[C@H](NC(=O)OC(C)(C)C(F)(F)F)C(=O)N3C2)c2cc(F)c(OC)cc2n1` [Compound 1203]: the 50% effective concentration (EC50) in assay [1] (read-out: LE_1b (EC50, range)) fell in the range of 0.1 to 0.5 nM; in assay [2] (read-out: LE_1a (EC50, range)) it was 1.01 to 5 nM.
Take `COc1cc(O[C@@H]2C[C@H]3C(=O)N[C@]4(C(=O)NS(=O)(=O)C5(C)CC5)C[C@H]4/C=C\CC[C@@H](C)C[C@@H](C)[C@H](NC(=O)OC(C)(C)C(C)(F)F)C(=O)N3C2)c2cc(F)c(OC)cc2n1` [Compound 1204]: the 50% effective concentration (EC50) in assay [1] (read-out: LE_1b (EC50, range)) lay within 0.51 to 1 nM; in assay [2] (read-out: LE_1a (EC50, range)), 1.01 to 5 nM.
